Results as given in patent US12257287B2, “Glucagon-derived peptide and use thereof” (Tianjin Institute of Pharmaceutical Research Co., Ltd., priority 2018, dated 2025).
Numbered stars: 1 amine (or outer) side, 2 acyl side, 3 side chain; on linkers, the order of the positions; unused ones are H or OH. Square brackets hold non-standard residues; d marks the D form. Side chains are listed from the residue outwards. Peptide text beside a SMILES is read from it. * marks the point of attachment. C20 diacid = O=C(O)CCCCCCCCCCCCCCCCCCC(=O)*; C18 diacid = O=C(O)CCCCCCCCCCCCCCCCC(=O)*; γGlu = O=C(O)[C@H](CCC(=O)[*:2])N[*:1]; AEEA = NCCOCCOCC(=O)O; Aib = CC(C)(N)C(=O)O

Target: T1, GC receptor (Homo sapiens, UniProt P47871)
T1 construct: expressed in transfected cells; host or cells: HEK293 cells
Assay: GC receptor mediated cAMP production in vitro (HEK293 cells transfected with GC receptor)
Assay type: cell-based
Conditions: 20 min at 37° C., read-out: GCGR (nM EC50)
Source text: The medium was removed, the cells were lysed, and cAMP values were detected referring to the detection method described for the assay kit.

T1 sequence (P47871 26-477): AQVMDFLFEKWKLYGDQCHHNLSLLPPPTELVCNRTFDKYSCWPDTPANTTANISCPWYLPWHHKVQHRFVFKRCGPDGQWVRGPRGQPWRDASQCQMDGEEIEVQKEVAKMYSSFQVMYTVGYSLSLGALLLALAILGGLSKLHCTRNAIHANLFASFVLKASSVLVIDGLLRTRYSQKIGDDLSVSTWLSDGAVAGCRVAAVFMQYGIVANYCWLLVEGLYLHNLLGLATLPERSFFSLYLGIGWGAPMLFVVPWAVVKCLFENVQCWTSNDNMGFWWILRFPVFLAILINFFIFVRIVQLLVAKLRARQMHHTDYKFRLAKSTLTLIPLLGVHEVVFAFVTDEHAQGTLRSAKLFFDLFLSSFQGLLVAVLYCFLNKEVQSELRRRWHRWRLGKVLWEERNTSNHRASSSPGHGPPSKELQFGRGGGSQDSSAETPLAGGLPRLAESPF

Row | EC50 [nM] | Compound
1 | 0.486 | CC(C)C[C@H](NC(=O)[C@H](Cc1c[nH]c2ccccc12)NC(=O)[C@H](C)NC(=O)[C@@H](NC(=O)[C@H](Cc1ccccc1)NC(=O)[C@H](CCC(=O)O)NC(=O)[C@H](CCCCN)NC(=O)[C@H](C)NC(=O)[C@H](C)NC(=O)[C@H](CCCNC(=N)N)NC(=O)[C@H](CCC(=O)O)NC(=O)[C@H](CCC(=O)O)NC(=O)[C@H](CC(C)C)NC(=O)[C@H](Cc1ccc(O)cc1)NC(=O)[C@H](CCCCN)NC(=O)[C@H](CO)NC(=O)[C@H](CCCCNC(=O)COCCOCCNC(=O)COCCOCCNC(=O)CC[C@H](NC(=O)CCCCCCCCCCCCCCCCC(=O)O)C(=O)O)NC(=O)[C@H](CC(=O)O)NC(=O)[C@H](CO)NC(=O)[C@@H](NC(=O)[C@H](Cc1ccccc1)NC(=O)[C@@H](NC(=O)CNC(=O)[C@H](CCC(N)=O)NC(=O)C(C)(C)NC(=O)[C@@H](N)Cc1c[nH]cn1)[C@@H](C)O)[C@@H](C)O)C(C)C)C(=O)N[C@@H](CCCCN)C(=O)N[C@@H](CCC(=O)O)C(=O)NCC(=O)NCC(=O)N1CCC[C@H]1C(=O)N[C@@H](CO)C(=O)N[C@@H](CO)C(=O)NCC(N)=O [Compound 17] (H-H[Aib]QGTFTSDK([AEEA-AEEA-γGlu-C18 diacid])SKYLEERAAKEFVAWLKEGGPSSG-NH2; N-terminus assumed)
2 | 0.329 | CC[C@H](C)[C@H](NC(=O)[C@H](Cc1ccccc1)NC(=O)[C@H](CCC(=O)O)NC(=O)[C@H](CCCCN)NC(=O)[C@H](C)NC(=O)[C@H](CCCNC(=N)N)NC(=O)[C@H](CCCCN)NC(=O)[C@H](CCC(=O)O)NC(=O)[C@H](CC(=O)O)NC(=O)[C@H](CC(C)C)NC(=O)[C@H](Cc1ccc(O)cc1)NC(=O)[C@H](CCCCN)NC(=O)[C@H](CO)NC(=O)[C@H](CCCCNC(=O)COCCOCCNC(=O)COCCOCCNC(=O)CC[C@H](NC(=O)CCCCCCCCCCCCCCCCC(=O)O)C(=O)O)NC(=O)[C@H](CC(=O)O)NC(=O)[C@H](CO)NC(=O)[C@@H](NC(=O)[C@H](Cc1ccccc1)NC(=O)[C@@H](NC(=O)CNC(=O)[C@H](CCC(N)=O)NC(=O)C(C)(C)NC(=O)[C@@H](N)Cc1c[nH]cn1)[C@@H](C)O)[C@@H](C)O)C(=O)N[C@@H](CCC(=O)O)C(=O)N[C@@H](Cc1c[nH]c2ccccc12)C(=O)N[C@@H](CC(C)C)C(=O)N[C@@H](CCC(=O)O)C(=O)N[C@@H](C)C(=O)NCC(=O)NCC(=O)N1CCC[C@H]1C(=O)N[C@@H](CO)C(=O)N[C@@H](CO)C(=O)NCC(N)=O [Compound 23] (H-H[Aib]QGTFTSDK([AEEA-AEEA-γGlu-C18 diacid])SKYLDEKRAKEFIEWLEAGGPSSG-NH2; N-terminus assumed)
3 | 0.219 | CC[C@H](C)[C@H](NC(=O)[C@H](Cc1ccccc1)NC(=O)[C@H](CCC(=O)O)NC(=O)[C@H](CCCCNC(=O)COCCOCCNC(=O)COCCOCCNC(=O)CC[C@H](NC(=O)CCCCCCCCCCCCCCCCC(=O)O)C(=O)O)NC(=O)[C@H](C)NC(=O)[C@H](CCCCN)NC(=O)[C@H](CCCNC(=N)N)NC(=O)[C@H](CCC(=O)O)NC(=O)[C@H](CCC(=O)O)NC(=O)[C@H](CC(C)C)NC(=O)[C@H](Cc1ccc(O)cc1)NC(=O)[C@H](CCCCN)NC(=O)[C@H](CO)NC(=O)[C@H](Cc1ccc(O)cc1)NC(=O)[C@H](CC(=O)O)NC(=O)[C@H](CO)NC(=O)[C@@H](NC(=O)[C@H](Cc1ccccc1)NC(=O)[C@@H](NC(=O)CNC(=O)[C@H](CCC(N)=O)NC(=O)C(C)(C)NC(=O)[C@@H](N)Cc1c[nH]cn1)[C@@H](C)O)[C@@H](C)O)C(=O)N[C@@H](C)C(=O)N[C@@H](Cc1c[nH]c2ccccc12)C(=O)N[C@@H](CC(C)C)C(=O)N[C@@H](CCC(=O)O)C(=O)N[C@@H](C)C(=O)NCC(=O)NCC(=O)N1CCC[C@H]1C(=O)N[C@@H](CO)C(=O)N[C@@H](CO)C(=O)NCC(N)=O [Compound 44] (H-H[Aib]QGTFTSDYSKYLEERKAK([AEEA-AEEA-γGlu-C18 diacid])EFIAWLEAGGPSSG-NH2; N-terminus assumed)
4 | 0.048 | CC[C@H](C)[C@H](NC(=O)[C@H](Cc1ccccc1)NC(=O)[C@H](CCC(=O)O)NC(=O)[C@H](CCCCNC(=O)COCCOCCNC(=O)COCCOCCNC(=O)CC[C@H](NC(=O)CCCCCCCCCCCCCCCCC(=O)O)C(=O)O)NC(=O)[C@H](C)NC(=O)[C@H](CCCNC(=N)N)NC(=O)[C@H](CCCCN)NC(=O)[C@H](CCC(=O)O)NC(=O)[C@H](CC(=O)O)NC(=O)[C@H](CC(C)C)NC(=O)[C@H](Cc1ccc(O)cc1)NC(=O)[C@H](CCCCN)NC(=O)[C@H](CO)NC(=O)[C@H](Cc1ccc(O)cc1)NC(=O)[C@H](CC(=O)O)NC(=O)[C@H](CO)NC(=O)[C@@H](NC(=O)[C@H](Cc1ccccc1)NC(=O)[C@@H](NC(=O)CNC(=O)[C@H](CCC(N)=O)NC(=O)C(C)(C)NC(=O)[C@@H](N)Cc1c[nH]cn1)[C@@H](C)O)[C@@H](C)O)C(=O)N[C@@H](C)C(=O)N[C@@H](Cc1c[nH]c2ccccc12)C(=O)N[C@@H](CC(C)C)C(=O)N[C@@H](CCC(=O)O)C(=O)N[C@@H](C)C(=O)NCC(=O)NCC(=O)N1CCC[C@H]1C(=O)N[C@@H](CO)C(=O)N[C@@H](CO)C(=O)NCC(N)=O [Compound 50] (H-H[Aib]QGTFTSDYSKYLDEKRAK([AEEA-AEEA-γGlu-C18 diacid])EFIAWLEAGGPSSG-NH2; N-terminus assumed)
5 | 0.025 | CC[C@H](C)[C@H](NC(=O)[C@H](Cc1ccccc1)NC(=O)[C@H](CCC(=O)O)NC(=O)[C@H](CCCCN)NC(=O)[C@H](C)NC(=O)[C@H](C)NC(=O)[C@H](CCCNC(=N)N)NC(=O)[C@H](CCC(=O)O)NC(=O)[C@H](CC(=O)O)NC(=O)[C@H](CC(C)C)NC(=O)[C@H](Cc1ccc(O)cc1)NC(=O)[C@H](CCCCN)NC(=O)[C@H](CO)NC(=O)[C@H](CCCCNC(=O)COCCOCCNC(=O)COCCOCCNC(=O)CC[C@H](NC(=O)CCCCCCCCCCCCCCCCC(=O)O)C(=O)O)NC(=O)[C@H](CC(=O)O)NC(=O)[C@H](CO)NC(=O)[C@@H](NC(=O)[C@H](Cc1ccccc1)NC(=O)[C@@H](NC(=O)CNC(=O)[C@H](CCC(N)=O)NC(=O)[C@H](CO)NC(=O)[C@@H](N)Cc1c[nH]cn1)[C@@H](C)O)[C@@H](C)O)C(=O)N[C@@H](C)C(=O)N[C@@H](Cc1c[nH]c2ccccc12)C(=O)N[C@@H](CC(C)C)C(=O)N[C@@H](CCC(=O)O)C(=O)N[C@@H](C)C(=O)NCC(=O)NCC(=O)N1CCC[C@H]1C(=O)N[C@@H](CO)C(=O)N[C@@H](CO)C(=O)NCC(N)=O [Compound 79] (H-HSQGTFTSDK([AEEA-AEEA-γGlu-C18 diacid])SKYLDERAAKEFIAWLEAGGPSSG-NH2; N-terminus assumed)
6 | 0.725 | CC(C)C[C@H](NC(=O)[C@H](Cc1c[nH]c2ccccc12)NC(=O)[C@H](C)NC(=O)[C@@H](NC(=O)[C@H](Cc1ccccc1)NC(=O)[C@H](CCC(=O)O)NC(=O)[C@H](CCCCNC(=O)COCCOCCNC(=O)COCCOCCNC(=O)CC[C@H](NC(=O)CCCCCCCCCCCCCCCCC(=O)O)C(=O)O)NC(=O)[C@H](C)NC(=O)[C@H](CCCNC(=N)N)NC(=O)[C@H](CCCCN)NC(=O)[C@H](CCC(=O)O)NC(=O)[C@H](CCC(=O)O)NC(=O)[C@H](CC(C)C)NC(=O)[C@H](Cc1ccc(O)cc1)NC(=O)[C@H](CCCCN)NC(=O)[C@H](CO)NC(=O)[C@H](Cc1ccc(O)cc1)NC(=O)[C@H](CC(=O)O)NC(=O)[C@H](CO)NC(=O)[C@@H](NC(=O)[C@H](Cc1ccccc1)NC(=O)[C@@H](NC(=O)CNC(=O)[C@H](CCC(N)=O)NC(=O)C(C)(C)NC(=O)[C@@H](N)Cc1c[nH]cn1)[C@@H](C)O)[C@@H](C)O)C(C)C)C(=O)N[C@@H](CCC(=O)O)C(=O)NCC(=O)NCC(=O)N1CCC[C@H]1C(=O)N[C@@H](CO)C(=O)N[C@@H](CO)C(=O)NCC(N)=O [Compound 74] (H-H[Aib]QGTFTSDYSKYLEEKRAK([AEEA-AEEA-γGlu-C18 diacid])EFVAWLEGGPSSG-NH2; N-terminus assumed)
7 | 0.314 | CC[C@H](C)[C@H](NC(=O)[C@H](Cc1ccccc1)NC(=O)[C@H](CCC(=O)O)NC(=O)[C@H](CCCCNC(=O)COCCOCCNC(=O)COCCOCCNC(=O)CC[C@H](NC(=O)CCCCCCCCCCCCCCCCCCC(=O)O)C(=O)O)NC(=O)[C@H](C)NC(=O)[C@H](CCCCN)NC(=O)[C@H](CCCNC(=N)N)NC(=O)[C@H](CCC(=O)O)NC(=O)[C@H](CCC(=O)O)NC(=O)[C@H](CC(C)C)NC(=O)[C@H](Cc1ccc(O)cc1)NC(=O)[C@H](CCCCN)NC(=O)[C@H](CO)NC(=O)[C@H](Cc1ccc(O)cc1)NC(=O)[C@H](CC(=O)O)NC(=O)[C@H](CO)NC(=O)[C@@H](NC(=O)[C@H](Cc1ccccc1)NC(=O)[C@@H](NC(=O)CNC(=O)[C@H](CCC(N)=O)NC(=O)C(C)(C)NC(=O)[C@@H](N)Cc1c[nH]cn1)[C@@H](C)O)[C@@H](C)O)C(=O)N[C@@H](C)C(=O)N[C@@H](Cc1c[nH]c2ccccc12)C(=O)N[C@@H](CC(C)C)C(=O)N[C@@H](CCC(=O)O)C(=O)NCC(=O)NCC(=O)N1CCC[C@H]1C(=O)N[C@@H](CO)C(=O)N[C@@H](CO)C(=O)NCC(N)=O [Compound 68] (H-H[Aib]QGTFTSDYSKYLEERKAK([AEEA-AEEA-γGlu-C20 diacid])EFIAWLEGGPSSG-NH2; N-terminus assumed)
8 | 0.077 | CC(C)C[C@H](NC(=O)[C@H](Cc1c[nH]c2ccccc12)NC(=O)[C@H](CCC(=O)O)NC(=O)[C@@H](NC(=O)[C@H](Cc1ccccc1)NC(=O)[C@H](CCC(=O)O)NC(=O)[C@H](CCCCNC(=O)COCCOCCNC(=O)COCCOCCNC(=O)CC[C@H](NC(=O)CCCCCCCCCCCCCCCCC(=O)O)C(=O)O)NC(=O)[C@H](C)NC(=O)[C@H](C)NC(=O)[C@H](CCCNC(=N)N)NC(=O)[C@H](CCC(=O)O)NC(=O)[C@H](CCC(=O)O)NC(=O)[C@H](CC(C)C)NC(=O)[C@H](Cc1ccc(O)cc1)NC(=O)[C@H](CCCCN)NC(=O)[C@H](CO)NC(=O)[C@H](Cc1ccc(O)cc1)NC(=O)[C@H](CC(=O)O)NC(=O)[C@H](CO)NC(=O)[C@@H](NC(=O)[C@H](Cc1ccccc1)NC(=O)[C@@H](NC(=O)CNC(=O)[C@H](CCC(N)=O)NC(=O)C(C)(C)NC(=O)[C@@H](N)Cc1c[nH]cn1)[C@@H](C)O)[C@@H](C)O)C(C)C)C(=O)N[C@@H](CCC(=O)O)C(=O)NCC(=O)NCC(=O)N1CCC[C@H]1C(=O)N[C@@H](CO)C(=O)N[C@@H](CO)C(=O)NCC(N)=O [Compound 32] (H-H[Aib]QGTFTSDYSKYLEERAAK([AEEA-AEEA-γGlu-C18 diacid])EFVEWLEGGPSSG-NH2; N-terminus assumed)
